Among the data in US9328099B2, “Cyanomethylpyrazole carboxamides as janus kinase inhibitors” (Merck Sharp & Dohme Corp., priority 2011, dated 2016) are IC50 values, retold here.

Like-named read-outs stand apart in the source and are kept apart here.

This assay concerns the target JAK1 (Homo sapiens (Human), UniProt P23458). Briefly: Jak Biochemical HTRF Assay, JAK1. As to conditions: read-out: JAK1 IC50. From the text:
Jak Biochemical HTRF Assay Protocol
Subsequent reagent additions employed an Agilent Bravo.

The mark [1] stands for this setting: HTRF biochemical assay, GST-tagged catalytic domain, top concentration tested […].

JAK1, sequence (P23458 875-1153): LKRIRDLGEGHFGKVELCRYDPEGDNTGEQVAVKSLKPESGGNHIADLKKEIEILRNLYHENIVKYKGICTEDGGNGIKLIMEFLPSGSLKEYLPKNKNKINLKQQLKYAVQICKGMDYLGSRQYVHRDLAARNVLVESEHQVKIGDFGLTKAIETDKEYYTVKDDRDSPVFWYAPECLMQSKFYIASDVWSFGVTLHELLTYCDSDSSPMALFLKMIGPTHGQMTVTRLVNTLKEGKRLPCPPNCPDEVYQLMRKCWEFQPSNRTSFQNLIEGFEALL

For `N#CCC1(n2cc(C(N)=O)c(Nc3ccc(F)cc3)n2)CCC(Nc2ccc(F)c(F)c2)CC1` (stereo not drawn) [Example 40-35, Cis or trans 1-{1-(cyanomethyl)-4-[(3,4-difluorophenyl)amino]cyclohexyl}-3-[(4-fluorophenyl)amino]-1H-pyrazole-4-carboxamide], the IC50 under setting [1] was determined as 0.8 nM.
As to `CC(C)(C)OC(=O)N1CCC(CC#N)(n2cc(C(N)=O)c(Nc3cccc(Br)c3)n2)CC1` [Example 12-1, tert-Butyl 4-{3-[(3-bromophenyl)amino]-4-carbamoyl-1H-pyrazol-1-yl}-4-(cyanomethyl)piperidine-1-carboxylate], the half-maximal inhibitory concentration (IC50) under setting [1] came to 1 nM.
Same read-out and setting: under `N#CCC1(n2cc(C(N)=O)c(Nc3ccc(C4CC4)nc3)n2)CCN(C(=O)OCC(F)F)CC1` [Example 9-40, 2,2-difluoroethyl 4-{4-carbamoyl-3-[(6-cyclopropylpyridin-3-yl)amino]-1H-pyrazol-1-yl}-4-(cyanomethyl)piperidine-1-carboxylate] stands 0.7 nM; under `N#CCC1(n2cc(C(N)=O)c(Nc3ccnc(F)c3)n2)CCC(Nc2ccccn2)CC1` (stereo not drawn) [Example 40-22, Cis or trans 1-[1-(cyanomethyl)-4-(pyridin-2-ylamino)cyclohexyl]-3-[(2-fluoropyridin-4-yl)amino]-1H-pyrazole-4-carboxamide], 4 nM; under `N#CCC1(n2cc(C(N)=O)c(Nc3ccc(F)cc3)n2)CCC(NCc2ccc(C#N)cc2)CC1` (stereo not drawn) [Example 40-97, Cis or trans 1-{4-[(4-cyanobenzyl)amino]-1-(cyanomethyl)cyclohexyl}-3-[(4-fluorophenyl)amino]-1H-pyrazole-4-carboxamide], 25 nM.
With `CS(=O)(=O)c1ccc(Nc2nn(C3(CC#N)CN(C(=O)OC4CCCC4)C3)cc2C(N)=O)cc1` [Example 30-74, cyclopentyl 3-(4-carbamoyl-3-{[4-(methylsulfonyl)phenyl]amino}-1H-pyrazol-1-yl)-3-(cyanomethyl)azetidine-1-carboxylate], under setting [1], the IC50 worked out at 6 nM.
Regarding `COc1cc(Nc2nn(C3(CC#N)CCN(C(=O)OC(C)(C)C)CC3)cc2C(N)=O)ccn1` [Example 9-19, tert-butyl 4-{4-carbamoyl-3-[(2-methoxypyridin-4-yl)amino]-1H-pyrazol-1-yl}-4-(cyanomethyl)piperidine-1-carboxylate], under setting [1], the IC50 stood at 6 nM.
Take `N#CCC1(n2cc(C(N)=O)c(Nc3ccccc3)n2)CCN(C(=O)Nc2ccc(C#N)cc2)CC1` [Example 38-47, 4-[4-carbamoyl-3-(phenylamino)-1H-pyrazol-1-yl]-4-(cyanomethyl)-N-(4-cyanophenyl)piperidine-1-carboxamide]: the IC50 under setting [1] stood at 0.2 nM.
On to `N#CCC1(n2cc(C(N)=O)c(Nc3ccc(S(=O)(=O)C(F)F)cc3)n2)CCC(Nc2cccnc2)CC1` (stereo not drawn) [Example 40-8, Cis or trans 1-[1-(cyanomethyl)-4-(pyridin-3-ylamino)cyclohexyl]-3-({4-[(difluoromethyl)sulfonyl]phenyl}amino)-1H-pyrazole-4-carboxamide], for which the half-inhibitory concentration (IC50) stood at 0.3 nM.
Take `N#CCC1(n2cc(C(N)=O)c(Nc3ccc(S(=O)(=O)C(F)F)cc3)n2)CCC(N2CC(F)C2)CC1` (stereo not drawn) [Example 40-105, Cis or trans 1-[1-(cyanomethyl)-4-(3-fluoroazetidin-1-yl)cyclohexyl]-3-({4-[(difluoromethyl)sulfonyl]phenyl}amino)-1H-pyrazole-4-carboxamide]: the IC50 under setting [1] came to 0.08 nM.
As for `N#CCC1(n2cc(C(N)=O)c(Nc3ccc(C(F)(F)F)cc3)n2)CCC(N2CC(F)C2)CC1` (stereo not drawn) [Example 39-2, 1-[1-(cyanomethyl)-4-(3-fluoroazetidin-1-yl)cyclohexyl]-3-{[4-(trifluoromethyl)phenyl]amino}-1H-pyrazole-4-carboxamide], under setting [1], the IC50 came out at 0.1 nM.
On the same count and under the same terms, to `CC(C)(C)OC(=O)N1CCC(CC#N)(n2cc(C(N)=O)c(Nc3ccc(S(=O)(=O)C(F)(F)F)cc3)n2)CC1` [Example 9-15, tert-butyl 4-[4-carbamoyl-3-({4-[(trifluoromethyl)sulfonyl]phenyl}amino)-1H-pyrazol-1-yl]-4-(cyanomethyl)piperidine-1-carboxylate] belongs 2 nM.
The same measure, in the same setting: to `CC(F)(F)C(=O)N1CC[C@@](CC#N)(n2cc(C(N)=O)c(Nc3ccc(F)nc3)n2)[C@@H](F)C1` (single isomer, unassigned) [Example 43-4, 1-((3R,4R or 3S,4S)-4-(cyanomethyl)-1-(2,2-difluoropropanoyl)-3-fluoropiperidin-4-yl)-3-((6-fluoropyridin-3-yl)amino)-1H-pyrazole-4-carboxamide] belongs 0.05 nM.
Same read-out and setting: under `N#CCC1(n2cc(C(N)=O)c(Nc3ccnc(F)c3)n2)CCC(NCc2cccc(O)c2)CC1` (stereo not drawn) [Example 41-5, Cis or trans 1-{1-(cyanomethyl)-4-[(3-hydroxybenzyl)amino]cyclohexyl}-3-[(2-fluoropyridin-4-yl)amino]-1H-pyrazole-4-carboxamide] stands 10 nM; under `Cc1ccc(F)cc1NC(=O)N1CC(CC#N)(n2cc(C(N)=O)c(Nc3ccccc3)n2)C1` [Example 38-38, 1-{3-(cyanomethyl)-1-[(5-fluoro-2-methylphenyl)carbamoyl]azetidin-3-yl}-3-(phenylamino)-1H-pyrazole-4-carboxamide], 13 nM.
Consider `N#CCC1(n2cc(C(N)=O)c(Nc3ccccc3)n2)CCN(Cc2cc3ccccc3o2)CC1` [Example 21-20, 1-[1-(1-benzofuran-2-ylmethyl)-4-(cyanomethyl)piperidin-4-yl]-3-(phenylamino)-1H-pyrazole-4-carboxamide], for which the IC50 under setting [1] is 10 nM.
The same measure, in the same setting: to `N#CCC1(n2cc(C(N)=O)c(Nc3ccnc(F)c3)n2)CCC(Nc2ccccc2)CC1` (stereo not drawn) [Example 40-86, Cis or trans 1-[1-(cyanomethyl)-4-(phenylamino)cyclohexyl]-3-[(2-fluoropyridin-4-yl)amino]-1H-pyrazole-4-carboxamide] belongs 0.06 nM; to `N#CCC1(n2cc(C(N)=O)c(Nc3ccccc3)n2)CCN(C(=O)c2ccccn2)CC1` [Example 34-9, 1-[4-(cyanomethyl)-1-(pyridin-2-ylcarbonyl)piperidin-4-yl]-3-(phenylamino)-1H-pyrazole-4-carboxamide], 18 nM.
`N#CCC1(n2cc(C(N)=O)c(Nc3ccnc(F)c3)n2)CCN(C(=O)OC2CCOC2)CC1` (stereo not drawn) [Example 30-16, tetrahydrofuran-3-yl 4-{4-carbamoyl-3-[(2-fluoropyridin-4-yl)amino]-1H-pyrazol-1-yl}-4-(cyanomethyl)piperidine-1-carboxylate]: the IC50 under setting [1] was found to be 0.9 nM.
With `N#CCC1(n2cc(C(N)=O)c(Nc3ccc(F)cc3)n2)CCC(NCC(F)(F)F)CC1` (stereo not drawn) [Example 40-101, Cis or trans 1-{1-(cyanomethyl)-4-[(2,2,2-trifluoroethyl)amino]cyclohexyl}-3-[(4-fluorophenyl)amino]-1H-pyrazole-4-carboxamide], the IC50 under setting [1] worked out at 18 nM.
Still for that read-out and setting: to `N#CCC1(n2cc(C(N)=O)c(Nc3ccnc(F)c3)n2)CCN(C(=O)OC2CCOC2)CC1` (single isomer, unassigned) [Example 49-1, (3S or 3R)-tetrahydrofuran-3-yl 4-{4-carbamoyl-3-[(2-fluoropyridin-4-yl)amino]-1H-pyrazol-1-yl}-4-(cyanomethyl)piperidine-1-carboxylate] belongs 0.6 nM; to `N#CCC1(n2cc(C(N)=O)c(Nc3ccccc3)n2)CCN(Cc2cccc(C#N)c2)CC1` [Example 21-3, 1-[1-(3-cyanobenzyl)-4-(cyanomethyl)piperidin-4-yl]-3-(phenylamino)-1H-pyrazole-4-carboxamide], 79 nM.
Same read-out and setting: under `CC(C)(C)OC(=O)N1CCC(CC#N)(n2cc(C(N)=O)c(Nc3ccnc(C(N)=O)c3)n2)CC1` [Example 9-27, tert-butyl 4-{4-carbamoyl-3-[(2-carbamoylpyridin-4-yl)amino]-1H-pyrazol-1-yl}-4-(cyanomethyl)piperidine-1-carboxylate] stands 0.4 nM; under `N#CCC1(n2cc(C(N)=O)c(Nc3ccnc(F)c3)n2)CCN(CCc2ccccc2)CC1` [Example 22-64, 1-[4-(cyanomethyl)-1-(2-phenylethyl)piperidin-4-yl]-3-[(2-fluoropyridin-4-yl)amino]-1H-pyrazole-4-carboxamide], 4 nM; under `CCc1ccc(NC(=O)N2CC(CC#N)(n3cc(C(N)=O)c(Nc4ccccc4)n3)C2)cc1` [Example 38-34, 1-{3-(cyanomethyl)-1-[(4-ethylphenyl)carbamoyl]azetidin-3-yl}-3-(phenylamino)-1H-pyrazole-4-carboxamide], 2 nM.
Same read-out and setting: under `CC(C)(O)c1ccc(Nc2nn(C3(CC#N)CCN(C(=O)OCC(F)(F)F)CC3)cc2C(N)=O)cn1` [Example 10-1, 2,2,2-Trifluoroethyl 4-(4-carbamoyl-3-(6-(2-hydroxypropan-2-yl)pyridin-3-ylamino)-1H-pyrazol-1-yl)-4-(cyanomethyl)piperidine-1-carboxylate] stands 0.1 nM.
As to `N#CCC1(n2cc(C(N)=O)c(Nc3ccnc(F)c3)n2)CCC(N2CCC(O)CC2)CC1` (stereo not drawn) [Example 40-13, Cis or trans 1-[1-(cyanomethyl)-4-(4-hydroxypiperidin-1-yl)cyclohexyl]-3-[(2-fluoropyridin-4-yl)amino]-1H-pyrazole-4-carboxamide], the IC50 under setting [1] turned out to be 115 nM.
On to `N#CCC1(n2cc(C(N)=O)c(Nc3ccccc3)n2)CCN(C(=O)OCCN2CCOCC2)CC1` [Example 30-41, 2-morpholin-4-ylethyl 4-[4-carbamoyl-3-(phenylamino)-1H-pyrazol-1-yl]-4-(cyanomethyl)piperidine-1-carboxylate], for which, under setting [1], the IC50 amounted to 31 nM.
Regarding `N#CCC1(n2cc(C(N)=O)c(Nc3ccc(F)cc3)n2)CCN(c2cccc(F)c2)CC1` [Example 3-27, 1-[4-(cyanomethyl)-1-(3-fluorophenyl)piperidin-4-yl]-3-[(4-fluorophenyl)amino]-1H-pyrazole-4-carboxamide], the IC50 under setting [1] came out at 1 nM.
On the same count and under the same terms, under `N#CCC1(n2cc(C(N)=O)c(Nc3ccccc3)n2)CN(C(=O)OCCc2cccc3ccccc23)C1` [Example 30-54, 2-naphthalen-1-ylethyl 3-[4-carbamoyl-3-(phenylamino)-1H-pyrazol-1-yl]-3-(cyanomethyl)azetidine-1-carboxylate] stands 375 nM.
